SMILES strings stand for the structures.

The target in this assay is MDM2 (Homo sapiens, UniProt Q00987). The experiment in a line: MDM2 binding screen of Libraries 3 and 4: displacement of fluorescent probe F-M8 at 750 nM macrocycle. The following applies: Panel b, Library 3: 63 scaffolds combinatorially acylated with 15 carboxylic acids at 30 picomole scale; displacement of fluorescent peptide probe; macrocycle 750 nM. Here is the method: The cyclic peptide scaffolds required for Libraries 3 and 4 were synthesized as described for those used in Library 2. Due to the presence of many N-methylated amino acids which are more difficult to couple, 200 mM HOAt was applied together with HATU. The scaffolds were diluted to 2 mM in DMSO, and 15 nL were transferred using acoustic dispensing, followed by 15 nL DMSO containing carboxylic acids (40 mM, 20 equiv.), HBTU (40 mM) and DABCO (40 mM). After 6 h reaction at room temperature, 370 nL of DMSO was added to each well, followed by 5 μL of 100 mM Tris-Cl pH 7.4 containing 0.01% v/v Tween20, for quenching overnight.
MDM2, sequence (Q00987 whole entry): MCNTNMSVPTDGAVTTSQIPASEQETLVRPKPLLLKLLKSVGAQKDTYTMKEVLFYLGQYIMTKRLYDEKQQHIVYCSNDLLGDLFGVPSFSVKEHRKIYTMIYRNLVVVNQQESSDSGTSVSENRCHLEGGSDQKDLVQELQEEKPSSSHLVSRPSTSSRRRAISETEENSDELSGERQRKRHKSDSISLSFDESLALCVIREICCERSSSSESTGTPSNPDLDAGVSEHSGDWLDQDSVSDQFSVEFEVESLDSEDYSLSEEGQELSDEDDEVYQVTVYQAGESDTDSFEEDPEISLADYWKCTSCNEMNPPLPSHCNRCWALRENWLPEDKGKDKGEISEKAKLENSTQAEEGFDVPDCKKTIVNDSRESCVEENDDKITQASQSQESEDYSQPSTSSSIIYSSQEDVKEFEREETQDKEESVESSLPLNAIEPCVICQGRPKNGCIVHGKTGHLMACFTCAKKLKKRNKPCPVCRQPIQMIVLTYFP
For the molecule `Cn1cc(C[C@@H]2NC(=O)[C@@H](CNC(=O)CCS(=O)(=O)c3ccccc3)NC(=O)C3(CC3)CNC(=O)CCSSCCNC2=O)c2ccccc21` [X-Amcp-D-Dap-Me-Trp + Acid 114], the “fraction of fluorescent probe displaced” value is listed as 0.015.

For `Cn1cc(C[C@@H]2NC(=O)[C@@H](CNC(=O)C3COc4ccccc4O3)NC(=O)C3(CC3)CNC(=O)CCSSCCNC2=O)c2ccccc21` (stereo partly drawn) [X-Amcp-D-Dap-Me-Trp + Acid 115], the “fraction of fluorescent probe displaced” value is recorded as 0.015.

For the molecule `CN1C(=O)[C@@H](CNC(=O)c2ccc(Cl)s2)NC(=O)C2(CC2)CNC(=O)CCSSCCNC(=O)[C@@H]1Cc1c[nH]c2ccccc12` [X-Amcp-D-Dap-NMe-Trp + Acid 14], the “fraction of fluorescent probe displaced” value is given as 0.008.

As for `CN1C(=O)[C@@H](CNC(=O)/C=C/c2ccncc2)NC(=O)C2(CC2)CNC(=O)CCSSCCNC(=O)[C@@H]1Cc1c[nH]c2ccccc12` [X-Amcp-D-Dap-NMe-Trp + Acid 106], the “fraction of fluorescent probe displaced” value is given as -0.015.

In the case of `CN1C(=O)[C@@H](CNC(=O)c2ccc3ccccc3c2)NC(=O)C2(CC2)CNC(=O)CCSSCCNC(=O)[C@@H]1Cc1c[nH]c2ccccc12` [X-Amcp-D-Dap-NMe-Trp + Acid 107], the “fraction of fluorescent probe displaced” value is listed as 0.031.

Turning to `CN1C(=O)[C@@H](CNC(=O)c2cccc(Oc3ccccc3)c2)NC(=O)C2(CC2)CNC(=O)CCSSCCNC(=O)[C@@H]1Cc1c[nH]c2ccccc12` [X-Amcp-D-Dap-NMe-Trp + Acid 111], the “fraction of fluorescent probe displaced” value came to 0.00133.

For the molecule `CN1C(=O)[C@@H](CNC(=O)CCS(=O)(=O)c2ccccc2)NC(=O)C2(CC2)CNC(=O)CCSSCCNC(=O)[C@@H]1Cc1c[nH]c2ccccc12` [X-Amcp-D-Dap-NMe-Trp + Acid 114], the “fraction of fluorescent probe displaced” value is listed as 0.055.

For `O=C1CCSSCCNC(=O)[C@H](Cc2c[nH]c3ccccc23)NC(=O)[C@@H](CNC(=O)c2ccc(Cl)s2)NC(=O)C2(CC2)CN1` [X-Amcp-D-Dap-Trp + Acid 14], the “fraction of fluorescent probe displaced” value was -0.00533.

`O=C1CCSSCCNC(=O)[C@H](Cc2c[nH]c3ccccc23)NC(=O)[C@@H](CNC(=O)c2ccc(Cl)cc2)NC(=O)C2(CC2)CN1` [X-Amcp-D-Dap-Trp + Acid 25]: the “fraction of fluorescent probe displaced” value is reported as -0.00533.

Regarding `O=C1CCSSCCNC(=O)[C@H](Cc2c[nH]c3ccccc23)NC(=O)[C@@H](CNC(=O)C2CC2c2ccccc2)NC(=O)C2(CC2)CN1` (stereo partly drawn) [X-Amcp-D-Dap-Trp + Acid 105], the “fraction of fluorescent probe displaced” value is reported as -0.015.

With `O=C1CCSSCCNC(=O)[C@H](Cc2c[nH]c3ccccc23)NC(=O)[C@@H](CNC(=O)c2ccc3ccccc3c2)NC(=O)C2(CC2)CN1` [X-Amcp-D-Dap-Trp + Acid 107], the “fraction of fluorescent probe displaced” value is 0.024.

With `O=C(/C=C/c1ccc(OCc2ccccc2)cc1)NC[C@H]1NC(=O)C2(CC2)CNC(=O)CCSSCCNC(=O)[C@H](Cc2c[nH]c3ccccc23)NC1=O` [X-Amcp-D-Dap-Trp + Acid 110], the “fraction of fluorescent probe displaced” value is 0.015.

As for `O=C1CCSSCCNC(=O)[C@H](Cc2c[nH]c3ccccc23)NC(=O)[C@@H](CNC(=O)c2cccc(Oc3ccccc3)c2)NC(=O)C2(CC2)CN1` [X-Amcp-D-Dap-Trp + Acid 111], the “fraction of fluorescent probe displaced” value is on record as 0.008.

With `O=C(/C=C/c1ccc2ccccc2c1)NC[C@H]1NC(=O)C2(CC2)CNC(=O)CCSSCCNC(=O)[C@H](Cc2c[nH]c3ccccc23)NC1=O` [X-Amcp-D-Dap-Trp + Acid 112], the “fraction of fluorescent probe displaced” value is reported as -0.00533.

`O=C1CCSSCCNC(=O)[C@H](Cc2cccc3ccccc23)NC(=O)[C@H](CNC(=O)c2ccc(Cl)s2)NC(=O)C2(CC2)CN1` [X-Amcp-Dap-1-NaI + Acid 14]: the “fraction of fluorescent probe displaced” value is recorded as -0.019.

`O=C1CCSSCCNC(=O)[C@H](Cc2cccc3ccccc23)NC(=O)[C@H](CNC(=O)c2ccc(Cl)cc2)NC(=O)C2(CC2)CN1` [X-Amcp-Dap-1-NaI + Acid 25]: the “fraction of fluorescent probe displaced” value worked out at 0.008.

For the molecule `O=C1CCSSCCNC(=O)[C@H](Cc2cccc3ccccc23)NC(=O)[C@H](CNC(=O)c2ccc3ccccc3c2)NC(=O)C2(CC2)CN1` [X-Amcp-Dap-1-NaI + Acid 107], the “fraction of fluorescent probe displaced” value is -0.00844.

`O=C(/C=C/c1ccc(OCc2ccccc2)cc1)NC[C@@H]1NC(=O)C2(CC2)CNC(=O)CCSSCCNC(=O)[C@H](Cc2cccc3ccccc23)NC1=O` [X-Amcp-Dap-1-NaI + Acid 110]: the “fraction of fluorescent probe displaced” value worked out at 0.00133.

Take `O=C1CCSSCCNC(=O)[C@H](Cc2cccc3ccccc23)NC(=O)[C@H](CNC(=O)c2cccc(Oc3ccccc3)c2)NC(=O)C2(CC2)CN1` [X-Amcp-Dap-1-NaI + Acid 111]: the “fraction of fluorescent probe displaced” value is on record as 0.008.

Turning to `CC(Oc1cccc(Cl)c1)C(=O)NC[C@@H]1NC(=O)C2(CC2)CNC(=O)CCSSCCNC(=O)[C@H](Cc2cccc3ccccc23)NC1=O` (stereo partly shown) [X-Amcp-Dap-1-NaI + Acid 113], the “fraction of fluorescent probe displaced” value is listed as -0.012.

As to `O=C(CCS(=O)(=O)c1ccccc1)NC[C@@H]1NC(=O)C2(CC2)CNC(=O)CCSSCCNC(=O)[C@H](Cc2cccc3ccccc23)NC1=O` [X-Amcp-Dap-1-NaI + Acid 114], the “fraction of fluorescent probe displaced” value was -0.00533.

Regarding `O=C1CCSSCCNC(=O)[C@H](Cc2cccc3ccccc23)NC(=O)[C@H](CNC(=O)C2COc3ccccc3O2)NC(=O)C2(CC2)CN1` (stereo partly shown) [X-Amcp-Dap-1-NaI + Acid 115], the “fraction of fluorescent probe displaced” value was found to be 0.00133.

For the molecule `O=C1CCSSCCNC(=O)[C@H](Cc2ccc3ccccc3c2)NC(=O)[C@H](CNC(=O)C2CC2c2ccccc2)NC(=O)C2(CC2)CN1` (stereo partly shown) [X-Amcp-Dap-2-Nal + Acid 105], the “fraction of fluorescent probe displaced” value was -0.034.

For `O=C(/C=C/c1ccncc1)NC[C@@H]1NC(=O)C2(CC2)CNC(=O)CCSSCCNC(=O)[C@H](Cc2ccc3ccccc3c2)NC1=O` [X-Amcp-Dap-2-Nal + Acid 106], the “fraction of fluorescent probe displaced” value was -0.002.

For the molecule `O=C1CCSSCCNC(=O)[C@H](Cc2ccc3ccccc3c2)NC(=O)[C@H](CNC(=O)c2ccc3ccccc3c2)NC(=O)C2(CC2)CN1` [X-Amcp-Dap-2-Nal + Acid 107], the “fraction of fluorescent probe displaced” value was found to be 0.031.

In the case of `O=C(/C=C/c1ccc(Cl)cc1)NC[C@@H]1NC(=O)C2(CC2)CNC(=O)CCSSCCNC(=O)[C@H](Cc2ccc3ccccc3c2)NC1=O` [X-Amcp-Dap-2-Nal + Acid 108], the “fraction of fluorescent probe displaced” value came to 0.008.

As to `O=C(/C=C/c1ccc(OCc2ccccc2)cc1)NC[C@@H]1NC(=O)C2(CC2)CNC(=O)CCSSCCNC(=O)[C@H](Cc2ccc3ccccc3c2)NC1=O` [X-Amcp-Dap-2-Nal + Acid 110], the “fraction of fluorescent probe displaced” value was 0.041.

For the molecule `O=C1CCSSCCNC(=O)[C@H](Cc2ccc3ccccc3c2)NC(=O)[C@H](CNC(=O)c2cccc(Oc3ccccc3)c2)NC(=O)C2(CC2)CN1` [X-Amcp-Dap-2-Nal + Acid 111], the “fraction of fluorescent probe displaced” value is 0.00133.

With `O=C(/C=C/c1ccc2ccccc2c1)NC[C@@H]1NC(=O)C2(CC2)CNC(=O)CCSSCCNC(=O)[C@H](Cc2ccc3ccccc3c2)NC1=O` [X-Amcp-Dap-2-Nal + Acid 112], the “fraction of fluorescent probe displaced” value was 0.015.

As for `O=C1CCSSCCNC(=O)[C@H](Cc2c[nH]c3cc(Cl)ccc23)NC(=O)[C@H](CNC(=O)c2ccc3ccccc3c2)NC(=O)C2(CC2)CN1` [X-Amcp-Dap-Cl-Trp + Acid 107], the “fraction of fluorescent probe displaced” value is given as 0.00455.

`O=C(/C=C/c1ccc(Cl)cc1)NC[C@@H]1NC(=O)C2(CC2)CNC(=O)CCSSCCNC(=O)[C@H](Cc2c[nH]c3cc(Cl)ccc23)NC1=O` [X-Amcp-Dap-Cl-Trp + Acid 108]: the “fraction of fluorescent probe displaced” value turned out to be 0.00133.

For `O=C1CCSSCCNC(=O)[C@H](Cc2c[nH]c3cc(Cl)ccc23)NC(=O)[C@H](CNC(=O)c2cccc(Oc3ccccc3)c2)NC(=O)C2(CC2)CN1` [X-Amcp-Dap-Cl-Trp + Acid 111], the “fraction of fluorescent probe displaced” value is given as 0.008.

For the molecule `O=C(/C=C/c1ccc2ccccc2c1)NC[C@@H]1NC(=O)C2(CC2)CNC(=O)CCSSCCNC(=O)[C@H](Cc2c[nH]c3cc(Cl)ccc23)NC1=O` [X-Amcp-Dap-Cl-Trp + Acid 112], the “fraction of fluorescent probe displaced” value stood at 0.008.

Consider `O=C1CCSSCCNC(=O)[C@H](Cc2c[nH]c3cc(Cl)ccc23)NC(=O)[C@H](CNC(=O)C2COc3ccccc3O2)NC(=O)C2(CC2)CN1` (stereo partly shown) [X-Amcp-Dap-Cl-Trp + Acid 115], for which the “fraction of fluorescent probe displaced” value is -0.012.

With `O=C1CCSSCCNC(=O)[C@@H](Cc2c[nH]c3ccccc23)NC(=O)[C@H](CNC(=O)C2CC2c2ccccc2)NC(=O)C2(CC2)CN1` (stereo partly drawn) [X-Amcp-Dap-D-Trp + Acid 105], the “fraction of fluorescent probe displaced” value is on record as -0.015.

`O=C1CCSSCCNC(=O)[C@@H](Cc2c[nH]c3ccccc23)NC(=O)[C@H](CNC(=O)c2ccc3ccccc3c2)NC(=O)C2(CC2)CN1` [X-Amcp-Dap-D-Trp + Acid 107]: the “fraction of fluorescent probe displaced” value was found to be 0.050.

For `O=C(/C=C/c1ccc(OCc2ccccc2)cc1)NC[C@@H]1NC(=O)C2(CC2)CNC(=O)CCSSCCNC(=O)[C@@H](Cc2c[nH]c3ccccc23)NC1=O` [X-Amcp-Dap-D-Trp + Acid 110], the “fraction of fluorescent probe displaced” value came out at 0.008.

For the molecule `O=C1CCSSCCNC(=O)[C@@H](Cc2c[nH]c3ccccc23)NC(=O)[C@H](CNC(=O)c2cccc(Oc3ccccc3)c2)NC(=O)C2(CC2)CN1` [X-Amcp-Dap-D-Trp + Acid 111], the “fraction of fluorescent probe displaced” value is on record as 0.00133.

For the molecule `O=C(/C=C/c1ccc2ccccc2c1)NC[C@@H]1NC(=O)C2(CC2)CNC(=O)CCSSCCNC(=O)[C@@H](Cc2c[nH]c3ccccc23)NC1=O` [X-Amcp-Dap-D-Trp + Acid 112], the “fraction of fluorescent probe displaced” value was 0.015.

`O=C(CCS(=O)(=O)c1ccccc1)NC[C@@H]1NC(=O)C2(CC2)CNC(=O)CCSSCCNC(=O)[C@@H](Cc2c[nH]c3ccccc23)NC1=O` [X-Amcp-Dap-D-Trp + Acid 114]: the “fraction of fluorescent probe displaced” value was 0.035.

(Values after article PMC9250534, “Synthesis and direct assay of large macrocycle diversities by combinatorial late-stage modification at picomole scale” (Nature Communications, 2022).)
